Reference: patent US11510931B2, “Compositions and methods for treating ophthalmic conditions” (MEDICON PHARMACEUTICALS, INC., priority 2016, dated 2022)

Columns and labels:
[1] = tested on: cornea of New Zealand white rabbits; test: Corneal touch threshold (CTT), Cochet-Bonnet aesthesiometer; type: in vivo, rabbit; details: Lidocaine 1%
Experimental: The analgesic effect of PS was determined by measuring the corneal touch threshold (CTT) using the Luneau Cochet-Bonnet Aeshesiometer (Western Ophthalmics, Lynwood, Wash.), an adjustable nylon monofilament with a defined diameter, which is applied in different lengths to the center of the cornea. This device is generally described in Lima L, Lange R R, Turner-Giannico A, Montiani-Ferreira F. Evaluation of standardized endodontic paper point tear test in New Zealand white rabbits and comparison between corneal sensitivity followed tear tests. Vet Ophthalmol. 2015; 18 Suppl 1:119-24.
A stimulus produced by the filament that reaches the CTT induces a corneal reflex, consisting of prompt eyelid closure. The CTT is quantified as centimeter length of the filament necessary to cause the blink reflex.
The CTT is determined before (baseline) and at various time points after the application of the test compound (PS). PS was formulated either in β-cyclodextrin (42 or 8 mg/ml) or in a nanocarrier (19 mg/ml). The test drug was formulated in a nanocarrier by the emulsion and evaporation method (Vauthier C, Bouchemal K. Methods for the Preparation and Manufacture of Polymeric Nanoparticles. Pharmaceutical Research; 2009; 26:1025-1058). The formulated stable drug suspension consisted of polylactic acid and polyethylene glycol (PLLA(10k)-PEG(2k)); sodium cholate; and PS. The vehicle control was either β-cyclodextrin or the nanocarrier without PS. Commercially available lidocaine 1% was used as a positive control.
To each eye of adult New Zealand white rabbits was applied […] drops of PS or vehicle or lidocaine, with 5 minutes between each drop. The time of the last drop was taken as the 0 time.
The analgesic effect of PS was further examined on the surface of the eye by determining the corneal touch threshold (CTT) using the Luneau Cochet-Bonnet Aesthesiometer (Western Ophthalmics, Lynwood, Wash.) an adjustable nylon monofilament with a defined diameter, which is applied in different lengths to the center of the cornea.

[2] = tested on: concanavalin A-induced dry eye in rabbits; test: Concanavalin A (Con A)-induced dry eye disease (DED) model in rabbits: TBUT, Schirmer test, tear osmolarity, tear lactoferrin; type: in vivo, rabbit; details: after 1 week of treatment with NSAID; FIG. 5
Experimental: To assess the efficacy of PS on DED an improved concanavalin A model was used. In the concanavalin A model, dry eye is induced by injecting the lacrimal glands of a mammal with concanavalin A, a selective T cell mitogen that induces a lymphocytic infiltrate in these glands. The concanavalin A model is generally described in (Barabino S. Animal models of dry eye. Arch Soc Esp Oftalmol. 2005; 80(12):693-4). Concanavalin A was injected to the lacrimal glands under ultrasound guidance, thus eliminating injections to the vicinity of the gland (as opposed to the gland itself). The head and the tail of the major lacrimal gland of the rabbit were injected separately. The dose of concanavalin A was optimized for DED signs.
In the testing described below, four markers of DED are monitored: the tear break up time (TBUT), the Schirmer test, tear osmolarity, and tear lactoferrin levels. All assays were performed at the same clock time (±1 hr) to avoid assay variability on account of circadian variations.
In an efficacy experiment using the concanavalin A model, one group of rabbits was treated with compound 5, also known as phosphosulindac and abbreviated as PS, 1.5% eye drops and one group with vehicle. […] It is thus clear that PS applied topically suppresses DED.
Con A was injected under ultrasound guidance into all the lacrimal glands and the success of the injection was verified by a post-injection ultrasound image (see FIG. 1 and FIG. 2). […] This variation explains why the blind injections recommended in the original method are often unsuccessful. This was confirmed by mixing the Con A solution with methylene blue and tracking its course after injection. In about ⅓ of the cases, Con A ended up outside the gland.
Four parameters of efficacy were evaluated instead of the usual one or two. They include (a) the tear break up time (TBUT), determined using 0.2% fluorescein over the eye and recording the time taken to develop black dots, lines or obvious disruption of the fluorescein film; (b) tear osmolarity, measured using TearLab Osmolarity Test and following the manufacturer's instructions (TearLab Corp., San Diego, Calif.); (3) Schirmer tear test (STT), determined using Schirmer strips (EagleVision, Denville, N.J.) inserted between the cornea and the palpebral conjunctiva at the mid-point of the lower lid and measuring the length of moistened strip at 5 min; and (4) tear lactoferrin levels measured by ELISA kit (MyBiosource, San Diego, Calif.) following the instructions of the manufacturer. All four have been used in clinical practice and correlate with the clinical activity of the disease. The STT is the least reliable and, as result, it is clinically used less than half as frequently as TBUT.
The injections of Con A to the lacrimal glands were repeated weekly as needed. When longer than a 1-week periods of study are needed, repeat injections prolong dry eye for at least 3 weeks, making the originally acute model chronic.
PS Suppresses Con A—Induced Dry Eye in Rabbits. The effect of PS on dry eye was determined in New Zealand White (NZW) rabbits, 2-3 kg (Charles River Labs, Waltham, Mass.). These rabbits were housed singly in rooms with strict temperature (70±5° F.) and humidity (45±5%) control and acclimated for at least 2 weeks prior to induction of dry eye by injection of Con A as above. NZW rabbits with Con A-induced dry eye (three sets of injections) were treated with PS formulated as nanoparticles and administered topically as eye drops 3×/day for 21 days, starting on the day of Con A injection. […] Similar results were obtained on days 5 and 14 (data not shown).
Using this model, we compared the effect of PS to that of cyclosporine and lifitegrast. Rabbits were treated for 6 days with PS as above or cyclosporine 0.05% or lifitegrast 5% eye drops 3×/day. In addition to determining TUBT, osmolarity and STT, we measured the levels of IL-8 and IL-1β in the ILGs of the rabbits harvested at euthanasia. […]

PGE2 = PGE2 levels in tears and cornea of rabbits by ELISA; type: in vivo, rabbit; details: for PGE2 levels in the cornea: administered once topically, 1 h later, FIG. 9B; for PGE2 levels in the cornea, % of the vehicle value: day 6, PS 2.3%, diclofenac 0.1%
Experimental: The effects of PS, ketorolac and dicofenac (the latter two ophthalmic NSAIDs known to induce corneal melt) on the tear levels of PGE2 in rabbits with concanavalin A-induced dry eye were compared. Three eye drops of PS 1.5% or of commercially available ketorolac 0.5% were given at 0 time, and 1 h later to rabbits with concanavalin A-induced DED. Tears were obtained at 2 h and the levels of PGE2 were determined by ELISA. PGE2 in tears of naïve rabbits (not exposed to concanavalin A nor treated) was also measured. The PGE2 levels (mean±SEM) were: Naïve, 110.4±12.6 ng/ml; PS-treated, 115.4±15.8 ng/ml; Ketorolac-treated, 77.7±8.7 ng/ml. The difference in PS vs. ketorolac was significant, p<0.02; as was the difference in ketorolac vs naïve, p<0.03. Regarding this parameter, PS differs radically form ketorolac, which induces corneal melt.
Levels of PGE2 in the corneas of three groups of rabbits were determined by ELISA. Rabbits were treated with PS 1.6% or ketorolac 0.5% eye drops topically applied to their eyes or were not treated (naïve group). Results in pg/mg protein (mean±SEM). Naïve=787.3±96.3; PS=880.6±110.3; Ketrolorac=247.2±187.4 (p<0.01 vs PS).
Rabbits with DED induced by concanavalin A as above were treated for 6 days with vehicle, or PS 2.3% or ketorolac 0.5% or diclofenac 0.1%. Compared to the vehicle group, on day 6 the PGE2 levels in the cornea were 106% of the vehicle value in the PS group (not a statistically significant difference), 1.3% in the ketorolac group (p<0.0001 vs. vehicle, and 2.3% in the diclofenac group (p<0.0001 vs. vehicle).
It was determined that the levels of PGE2 in rabbit tears in three groups of rabbits, naïve and those with Con A-induced DED that were treated for 1 week either with PS or vehicle.
In an acute experiment, administered once topically to the eyes of four groups of rabbits with Con A-induced DED was one of the following: vehicle, PS, ketorolac or diclofenac; the latter two are NSAIDs used for the treatment of ocular inflammation and pain. It was determined that the levels of PGE2 in the cornea of these rabbits obtained 1 h later as well as in the corneas of naïve rabbits.

Staphylococcus aureus = test: Disk diffusion antimicrobial susceptibility with PS-impregnated antibiotic disks; type: cell-based; details: 24 h, mean ± SD
Experimental: Briefly, Staphylococcus aureus grown in culture was seeded evenly on Muller-Hinton II Agar plates (BD Diagnostic Systems) at the standard concentration of 2×10^8 colony-forming units per mL. Antibiotic antimicrobial susceptibility disks (Thermo Scientific Oxoid™) were impregnated with one of six concentrations of PS (0%, 1%, 2%, 3%, 6%, 9%); 10 μL of each was evenly dispensed on each disk. An additional control was disks with no PS and no vehicle. The growth of bacteria around each disk was monitored and the area of “no growth” around each disk was measured 24 h later.

[3] = tested on: chorioallantoic membrane (CAM); test: Chorioallantoic membrane (CAM) neovascularization assay; type: in vivo, chicken; details: VEGF alone; day 4; Mean ± SEM
Experimental: Second, the effect of PS on new vessel formation (neovascularization) was evaluated using the chorioallantoic membrane (CAM) assay. In this assay, fertilized white chicken eggs (SPF Premium, Charles River Laboratory, North Franklin, Conn.) were incubated at 37° C. in 70% humidity for 3 days. The embryos were then incubated ex vivo in a sterile Petri dish for 7 days. Gelatin sponges adsorbed with or without VEGF plus PS or water (vehicle control) were implanted on the CAM surface and the neovasculature was counted on day 4 post implantation under a dissecting microscope.

MMPs = test: General MMP activity in rabbit cornea (FRET peptide); type: in vivo
Experimental: The general activity of MMPs was determined in the corneas of three groups of rabbits. This MMP activity assay employs a fluorescence resonance energy transfer (FRET) peptide as a generic MMP indicator. Rabbits were treated with PS 1.6% or ketorolac 0.5% eye drops topically applied to their eyes or were not treated (naïve group). Results in relative fluorescence units (RFU)/mg protein (mean±SEM). Naïve=1,328±123; PS=749±218; Ketoroloac=1,272±106 (p<0.03 vs PS).
In an acute experiment, naïve rabbits were treated with either PS or ketorolac (both administered topically) for 1 h and determined the activity of MMP in the cornea. This assay determines the activity of MMPs collectively in a given tissue.

[4] = Con A DED rabbits, ketorolac 0.5%
[5] = antibiotic disk with PS 0% (vehicle only)
[6] = rabbits, PS 1.6% or ketorolac 0.5% eye drops, mean±SEM

Molecule | TBUT, osmolarity and STT [2] | PGE2 levels in the cornea (PGE2; Con A DED rabbits) | PGE2 levels in the cornea, % of the vehicle value (PGE2; [4]) [%] | Inhibition Zone (Staphylococcus aureus; [5]) [mm] | Inhibition Zone (Staphylococcus aureus; antibiotic disk with PS 1%) [mm] | Inhibition Zone (Staphylococcus aureus; antibiotic disk with PS 2%) [mm] | Inhibition Zone (Staphylococcus aureus; antibiotic disk with PS 3%) [mm] | Inhibition Zone (Staphylococcus aureus; antibiotic disk with PS 6%) [mm] | Inhibition Zone (Staphylococcus aureus; antibiotic disk with PS 9%) [mm] | also measured
CCN(CC)CC(=O)Nc1c(C)cccc1C [Lidocaine, lidocaine, reference compound] | – | – | – | – | – | – | – | – | – | Corneal touch threshold (CTT) ([1]; 1 min): 1.5 ± 1.3 centimeter; Corneal touch threshold (CTT) ([1]; 5 min): 2.3 ± 1.5 centimeter; Corneal touch threshold (CTT) ([1]; 10 min): 3.1 ± 1.9 centimeter; Corneal touch threshold (CTT) ([1]; 20 min): 4.0 ± 1.3 centimeter; Corneal touch threshold (CTT) ([1]; 30 min): 5.8 ± 0.6 centimeter; Corneal touch threshold (CTT) ([1]; 45 min): 5.8 ± 0.6 centimeter; Corneal touch threshold (CTT) ([1]; 60 min): 6.0 ± 0.0 centimeter; Corneal touch threshold (CTT) ([1]; baseline): 6.0 ± 0.0 centimeter
O=C(O)Cc1ccccc1Nc1c(Cl)cccc1Cl [diclofenac] | failed to improve | suppressed nearly completely | 2.3 | – | – | – | – | – | – | –
C[C@H]1COc2c(N3CCN(C)CC3)c(F)cc3c(=O)c(C(=O)O)cn1c23 [Levofloxacin] | – | – | – | 32.3 ± 0.6 | 32.7 ± 0.6 | 32.0 ± 0.0 | 31.7 ± 0.6 | 32.3 ± 1.5 | 31.0 ± 1.0 | –
VEGF [reference compound] | – | – | – | – | – | – | – | – | – | # of new vessels [3]: 62.3 ± 1.8
O=C(O)c1cn(C2CC2)c2cc(N3CCNCC3)c(F)cc2c1=O [Ciprofloxacin] | – | – | – | 30.0 ± 0.0 | 30.3 ± 0.6 | 29.7 ± 0.6 | 29.3 ± 0.6 | 27.7 ± 0.4 | 29.7 ± 0.6 | –
O=C(c1ccccc1)c1ccc2n1CCC2C(=O)O (stereo not shown) [Ketorolac, ketorolac] | failed to improve | suppressed nearly completely | 1.3 | – | – | – | – | – | – | MMP activity in the cornea (MMPs; naïve rabbits, topical, 1 h): failed to affect; general activity of MMPs in the corneas (MMPs; [6]): 1,272±106 RFU/mg protein; PGE2 levels in tears (PGE2; Con A DED rabbits, three eye drops at 0 and 1 h, tears at 2 h, PS 1.5%, ketorolac 0.5%, mean±SEM): 77.7 ± 8.7 ng/mL; PGE2 levels in the corneas (PGE2; [6]): 247.2±187.4 pg/mg protein
